The values below come from ChEMBL document CHEMBL4177563, “The medicinal chemistry of Chikungunya virus” (Bioorg Med Chem, 2017).

The test system of series [1] is Dengue virus. The series is described as follows: Antiviral activity against Dengue virus infected in human Huh-7 cells assessed as reduction in viral load at 1 uM. It counts as functional.
Series [2] has as its system Dengue virus. The series is described as follows: Antiviral activity against Dengue virus infected in human K562 cells assessed as reduction in viral load at 1 uM. It counts as functional.
Series [3] deals with Chikungunya virus. The series is described as follows: Antiviral activity against Chikungunya virus infected in human Huh-7 cells assessed as reduction in viral load at 10 uM. Format: functional.
Series [4] can be described thus: Selectivity index, ratio of CC50 for African green monkey Vero cells to IC50 for Chikungunya virus nsP2 protease. It counts as toxicity. The note with it: read-out: Ratio CC50/IC50.
Series [5] relates to Chikungunya virus. Kind of series: Antiviral activity against Chikungunya virus 899 infected in African green monkey Vero-A cells assessed as inhibition of viral-induced cytopathic effect measured on day 7 post infection by MTS/PMS assay. It counts as functional, organism-based. As to conditions: Chikungunya virus, 899, 168 h.
The test system of series [6] is Chikungunya virus. The series is described as follows: Antiviral activity against Chikungunya virus infected in African green monkey Vero cells. Format: functional, organism-based.
A short description of series [7]: Selectivity index, ratio of CC50 for African green monkey Vero cells to EC50 for Chikungunya virus. It counts as toxicity. As to conditions: read-out: Ratio CC50/EC50.
The test system of series [8] is Aedes aegypti. Kind of series: Induction of oviposition deterrent activity in Aedes aegypti assessed as effective repellency at 15 ug/ml after 24 hrs by stereomicroscopic analysis relative to control. It counts as functional.
Series [9] deals with Aedes aegypti. The series is described as follows: Larvicidal activity against Aedes aegypti Paea assessed as mortality after 24 hrs. Format: functional, organism-based.
The test system of series [10] is Aedes aegypti. Kind of series: Larvicidal activity against Aedes aegypti Paea assessed as mortality at 28 ug/ml after 24 hrs relative to control. Format: functional.
In series [11] the test system is Aedes aegypti. Kind of series: Induction of oviposition deterrent activity in Aedes aegypti assessed as effective repellency at 30 ug/ml after 24 hrs by stereomicroscopic analysis relative to control. It counts as functional.
Series [12] has as its system Aedes aegypti. The series is described as follows: Larvicidal activity against Aedes aegypti Paea assessed as mortality at 7 ug/ml after 24 hrs relative to control. It counts as functional.
Series [13] has as its system Aedes aegypti. The series is described as follows: Larvicidal activity against Aedes aegypti Paea assessed as mortality at 35 ug/ml after 24 hrs relative to control. It counts as functional.
Series [14] has as its system Aedes aegypti. Kind of series: Induction of oviposition deterrent activity in Aedes aegypti assessed as effective repellency at 45 ug/ml after 24 hrs by stereomicroscopic analysis relative to control. It counts as functional.
Series [15] concerns Aedes aegypti. Kind of series: Larvicidal activity against Aedes aegypti Paea assessed as mortality at 21 ug/ml after 24 hrs relative to control. Format: functional.
Series [16] deals with Aedes aegypti. Kind of series: Induction of oviposition deterrent activity in Aedes aegypti assessed as effective repellency at 60 ug/ml after 24 hrs by stereomicroscopic analysis relative to control. Format: functional.
The subject of series [17] is Aedes aegypti. Kind of series: Larvicidal activity against Aedes aegypti Paea assessed as mortality at 14 ug/ml after 24 hrs relative to control. Format: functional.
The subject of series [18] is Aedes aegypti. The series is described as follows: Induction of oviposition deterrent activity in Aedes aegypti assessed as effective repellency at 75 ug/ml after 24 hrs by stereomicroscopic analysis relative to control. Format: functional.
Series [19] has as its system Aedes aegypti. The series is described as follows: Induction of oviposition deterrent activity in Aedes aegypti assessed as effective repellency at 10 ug/ml after 24 hrs by stereomicroscopic analysis relative to control. Format: functional.
Series [20] has as its system Aedes aegypti. Kind of series: Induction of oviposition deterrent activity in Aedes aegypti assessed as effective repellency at 40 ug/ml after 24 hrs by stereomicroscopic analysis relative to control. Format: functional.
The test system of series [21] is Aedes aegypti. Kind of series: Induction of oviposition deterrent activity in Aedes aegypti assessed as effective repellency at 20 ug/ml after 24 hrs by stereomicroscopic analysis relative to control. It counts as functional.
Series [22] deals with Aedes aegypti. The series is described as follows: Induction of oviposition deterrent activity in Aedes aegypti assessed as effective repellency at 50 ug/ml after 24 hrs by stereomicroscopic analysis relative to control. It counts as functional.
Series [23] relates to Aedes aegypti. Kind of series: Larvicidal activity against Aedes aegypti Paea assessed as mortality at 15 ug/ml after 24 hrs relative to control. It counts as functional.
Series [24] concerns Aedes aegypti. The series is described as follows: Larvicidal activity against Aedes aegypti Paea assessed as mortality at 5 ug/ml after 24 hrs relative to control. It counts as functional.
Series [25] relates to Aedes aegypti. Kind of series: Larvicidal activity against Aedes aegypti Paea assessed as mortality at 25 ug/ml after 24 hrs relative to control. Format: functional.
For series [26], the system named is Aedes aegypti. The series is described as follows: Larvicidal activity against Aedes aegypti Paea assessed as mortality at 20 ug/ml after 24 hrs relative to control. It counts as functional.
Series [27] deals with Aedes aegypti. Kind of series: Larvicidal activity against Aedes aegypti Paea assessed as mortality at 10 ug/ml after 24 hrs relative to control. It counts as functional.
Series [28] can be described thus: Cytotoxicity against African green monkey Vero cells assessed as reduction in cell viability. As to conditions: chlorocebus sabaeus. Format: cell-based.

In brackets after ≈: the same amount, converted by molar mass. A value given as a limit tells only on which side of the number the result lay.

For `O=C1c2c(O)ccc([N+](=O)[O-])c2C(=O)c2c([N+](=O)[O-])ccc(O)c21`, the values for the Activity in the series with Dengue virus [1], in the series with Dengue virus [2] and with Chikungunya virus [3] were greater than 1 log10PFU/ml, greater than 1 log10PFU/ml and 1 log10PFU/ml, respectively.
As to `CCOc1ccc(/C=N/NC(=O)C2CC2c2ccc(C(C)(C)C)cc2)cc1OCC` (stereo unspecified), in series [4], the selectivity ratio worked out at 14.
By EC50 is commonly meant the concentration giving half of the maximal effect. With `NC(=O)c1nccnc1O`, the EC50 in the series on Chikungunya virus [5] came to 7 µM.
In the case of `C/C(=C\C(=O)O[C@@H]1[C@H](C)C[C@H]2O[C@]1(O)[C@@H](O)[C@H]1CC[C@H](O1)C(C)(C)/C=C/[C@H](C)C2=O)C(C)O` (stereo partly specified), in the series on Chikungunya virus [6], the EC50 worked out at 34 µM. For the same molecule, the selectivity ratio in series [7] is 3.2.
Turning to `CC(=O)C(C)/C(C)=C/C(=O)O[C@@H]1[C@H](C)C[C@H]2O[C@]1(O)[C@@H](O)[C@H]1CC[C@H](O1)C(C)(C)/C=C/[C@H](C)C2=O` (stereo partly specified), the EC50 in the series on Chikungunya virus [6] was 7 µM. Moreover, the selectivity ratio in series [7] amounted to 8.8.
With `CCOc1ccc(/C=N/NC(=O)/C=C/Cc2ccc(C(C)(C)C)cc2)cc1OCC`, the selectivity ratio in [4] worked out at 32.
The IC50 is the point on the concentration scale where inhibition reaches its midpoint. Broadly, the IC90 is the concentration at which the effect reaches the 90% level. As for `CC(C)=CCCC(C)[C@@]1(O)CC=C(C)CC1` (stereo partly specified), the Activity in the series on Aedes aegypti [8] turned out to be 72.3%; in the series with Aedes aegypti [10] it was 84.7%; with Aedes aegypti [11] it was 77.03%; with Aedes aegypti [12], 24.8%; in the series with Aedes aegypti [13] it was 98.1%; in the series on Aedes aegypti [14], 81.13%. The Activity in the series with Aedes aegypti [15] is reported as 63.2%; in the series on Aedes aegypti [16], 85.45%; in the series on Aedes aegypti [17], 42.6%; in the series with Aedes aegypti [18] it was 88.99%. Besides, the half-inhibitory concentration (IC50) in the series on Aedes aegypti [9] was found to be 15.8 µg/mL (≈ 71.2 µM). In the series with Aedes aegypti [9], the IC90 worked out at 30.3 µg/mL (≈ 136 µM).
As to `CC(C)=CCCC(C)c1ccc(C)cc1` (stereo unspecified), the IC50 in the series on Aedes aegypti [9] amounted to 11.2 µg/mL (≈ 55.5 µM). For the same molecule, the IC90 in the series with Aedes aegypti [9] came to 22 µg/mL (≈ 109 µM). Moreover, the Activity with Aedes aegypti [19] is listed as 70.28%; in the series on Aedes aegypti [20] it was 86%; with Aedes aegypti [21], 75.62%; in the series with Aedes aegypti [22], 89.99%; with Aedes aegypti [23], 62.7%; with Aedes aegypti [11], 80.87%. In addition, the Activity with Aedes aegypti [24] is listed as 24.5%; in the series with Aedes aegypti [25] it was 97.1%; in the series on Aedes aegypti [26], 84.2%; with Aedes aegypti [27], 45.3%.
As usually defined, the CC50 is the concentration that lowers cell viability or growth by half. For `CC/C(C)=C/C(=O)O[C@@H]1[C@H](C)C[C@H]2O[C@]1(O)[C@@H](O)[C@H]1CC[C@H](O1)C(C)(C)/C=C/[C@H](C)C2=O`, the EC50 in the series with Chikungunya virus [6] is less than 0.8 µg/mL. In [28], the CC50 is 60.9 µg/mL (≈ 135 µM).
